Test results published in article PMC7758046, “Novel piperazine–chalcone hybrids and related pyrazoline analogues targeting VEGFR-2 kinase; design, synthesis, molecular docking studies, and anticancer evaluation” (Journal of Enzyme Inhibition and Medicinal Chemistry, 2020).
“Also recorded” adds a separate entry of the source.

Columns and labels:
CAKI-1 (Renal cancer) = test: NCI-60 single-dose anticancer screen; format: cell-based, human; conditions: 10 µM single dose
How it was run: (§1)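 At the NCI, each compound was applied once at 10 µM to 60 human tumour cell lines and in vitro cytotoxicity was recorded.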

[1] = test system: HOP-62 (Non-small cell lung cancer); test: NCI-60 single-dose anticancer screen; format: cell-based, human; conditions: 10 µM single dose
How it was run: as §1

HS 578T (Breast cancer) = test: NCI-60 single-dose anticancer screen; format: cell-based, human; conditions: 10 µM single dose
How it was run: as §1

HT29 (Colon cancer) = test: NCI-60 single-dose anticancer screen; format: cell-based, human; conditions: for cell growth promotion: 10 µM single dose; for inhibition at 10 µM: Homo sapiens, HT-29, 10 µM single dose, read-out: cell growth inhibition
How it was run: as §1

K-562 (Leukaemia) = test: NCI-60 single-dose anticancer screen; format: cell-based, human; conditions: for cell growth promotion: 10 µM single dose; for inhibition at 10 µM: Homo sapiens, K562, 10 µM single dose, read-out: cell growth inhibition
How it was run: as §1

[2] = test system: MDA-MB-468 (Breast cancer); test: NCI-60 single-dose anticancer screen; format: cell-based, human; conditions: 10 µM single dose
How it was run: as §1

MOLT-4 (Leukaemia) = test: NCI-60 single-dose anticancer screen; format: cell-based, human; conditions: 10 µM single dose
How it was run: as §1

[3] = test system: NCI-H226 (Non-small cell lung cancer); test: NCI-60 single-dose anticancer screen; format: cell-based, human; conditions: 10 µM single dose
How it was run: as §1

[4] = test system: NCI-H23 (Non-small cell lung cancer); test: NCI-60 single-dose anticancer screen; format: cell-based, human; conditions: 10 µM single dose
How it was run: as §1

[5] = test system: NCI-H322M (Non-small cell lung cancer); test: NCI-60 single-dose anticancer screen; format: cell-based, human; conditions: 10 µM single dose
How it was run: as §1

[6] = test system: NCI-H522 (Non-small cell lung cancer); test: NCI-60 single-dose anticancer screen; format: cell-based, human; conditions: 10 µM single dose
How it was run: as §1

OVCAR-3 (Ovarian cancer) = test: NCI-60 single-dose anticancer screen; format: cell-based, human; conditions: 10 µM single dose
How it was run: as §1

SF-268 (CNS cancer) = test: NCI-60 single-dose anticancer screen; format: cell-based, human; conditions: 10 µM single dose
How it was run: as §1

SF-295 (CNS cancer) = test: NCI-60 single-dose anticancer screen; format: cell-based, human; conditions: 10 µM single dose
How it was run: as §1

SF-539 (CNS cancer) = test: NCI-60 single-dose anticancer screen; format: cell-based, human; conditions: 10 µM single dose
How it was run: as §1

SK-MEL-5 (Melanoma) = test: NCI-60 single-dose anticancer screen; format: cell-based, human; conditions: 10 µM single dose
How it was run: as §1

SN12C (Renal cancer) = test: NCI-60 single-dose anticancer screen; format: cell-based, human; conditions: 10 µM single dose
How it was run: as §1

SNB-75 (CNS cancer) = test: NCI-60 single-dose anticancer screen; format: cell-based, human; conditions: 10 µM single dose
How it was run: as §1

SR (Leukaemia) = test: NCI-60 single-dose anticancer screen; format: cell-based, human; conditions: 10 µM single dose; for inhibition at 10 µM: Homo sapiens, read-out: cell growth inhibition
How it was run: as §1

HCT-116 cells [7] = test: Cell cycle analysis by DNA flow cytometry; format: cell-based, human; conditions: 10 µM; for %Pre-G1 / %G2/M / %S / %G0/G1: 24 h; for %Pre-G1: control 1.97; for %G2/M: control 15.44; for %S: control 30.18; for %G0/G1: control 54.38
Experimental: Flow cytometric analysis is considered a valuable method for determining and analysing the cell cycle parameters. […] The effect on the cell cycle distribution was assessed by a DNA flow cytometry analysis and the cell cycle parameters were compared to untreated control cells in HCT-116 cells which had been incubated with 10 µM of Vd and Ve compounds and the results are shown in Table 3 and Figure 3.
HCT-116 cells were seeded at concentrations of 1 × 10^5 cells per well in a six-well plate, then incubated for 24 h. The cells were treated for 24 h with vehicles (0.1% DMSO) or 10 µM of Vd or Ve compounds. Using ice-cold, 70% ethanol at 4 °C, cells were harvested and fixed for 12 h after that. Ethanol removal and cold PBS washing of the cells were done. Then incubated in 0.5 mL of PBS containing 1 mg/mL Ranse for 30 min at 37 °C. In the dark, the cells were stained with PI for 30 min. Flow cytometer was then used to detect contents of DNA[62].

HCT-116 cells [8] = test: Annexin V-FITC/PI apoptosis assay; conditions: for Apoptosis Early: control 0.51; for Necrosis: control 1.21; for Apoptosis Total: control 1.97

Structure (SMILES)	cell growth promotion (CAKI-1 (Renal cancer))	cell growth promotion [1]	cell growth promotion (HS 578T (Breast cancer))	cell growth promotion (HT29 (Colon cancer))	cell growth promotion (K-562 (Leukaemia))	inhibition at 10 µM (K-562 (Leukaemia))	cell growth promotion [2]	cell growth promotion (MOLT-4 (Leukaemia))	cell growth promotion [3]	cell growth promotion [4]	cell growth promotion [5]	cell growth promotion [6]	cell growth promotion (OVCAR-3 (Ovarian cancer))	cell growth promotion (SF-268 (CNS cancer))	cell growth promotion (SF-295 (CNS cancer))	cell growth promotion (SF-539 (CNS cancer))	cell growth promotion (SK-MEL-5 (Melanoma))	cell growth promotion (SN12C (Renal cancer))	cell growth promotion (SNB-75 (CNS cancer))	cell growth promotion (SR (Leukaemia))	further results
COc1cc(C=CC(=O)c2ccc(N3CCNCC3)cc2)ccc1F [Ve, 3-(4-Fluoro-3-methoxyphenyl)-1-(4-(piperazin-1-yl)phenyl) prop-2-en-1-one]	79.37%	101.42%	91.26%	49.97%	12.37%	87.6%	46.48%	80.75%	86.54%	92.63%	73.01%	61.19%	70.18%	94.03%	95.92%	95.87%	79.33%	57.67%	89.05%	46.22%	inhibition at 10 µM (SR (Leukaemia)): 53.8%; Comment (cell cycle arrest phase) (HCT-116 cells [7]): arrest HCT-116 cell cycle in the G2/M phase; also recorded: induced cell arrest at G2/M phase; %Pre-G1 (HCT-116 cells [7]): 18.22%; %G2/M (HCT-116 cells [7]): 46.85%; %S (HCT-116 cells [7]): 28.58%; %G0/G1 (HCT-116 cells [7]): 24.57%; total increase in apoptosis compared to the control (HCT-116 cells [8]): ~21.2 fold; Apoptosis Early (HCT-116 cells [8]; 10 µM, 24 h): 4.76%; Necrosis (HCT-116 cells [8]; 10 µM, 24 h): 2.11%; Apoptosis Total (HCT-116 cells [8]; 10 µM, 24 h): 18.22%
COc1cc(C2CC(c3ccc(N4CCNCC4)cc3)=NN2)ccc1F (centres unmarked) [VIb, 1-(4-(5-(4-Fluoro-3-methoxyphenyl)-4,5-dihydro-1H-pyrazol-3-yl)phenyl) piperazine]	86.62%	86.01%	84.17%	20.27%	58.92%	41.1%	96.57%	72.10%	89.08%	75.49%	89.15%	66.27%	91.15%	93.72%	97.70%	84.21%	80.94%	83.08%	88.85%	67.42%	inhibition at 10 µM (HT29 (Colon cancer)): 79.7%; melting point: 195 °C
N#Cc1ccccc1C1CC(c2ccc(N3CCNCC3)cc2)=NN1 (centres unmarked) [VIa, 2-(3-(4-(Piperazin-1-yl)phenyl)-4,5-dihydro-1H-pyrazol-5-yl)benzonitrile]	83.12%	86.44%	91.67%	87.83%	78.12%	21.9%	101.01%	96.02%	93.10%	91.73%	98.35%	69.51%	101.64%	100.24%	103.66%	105.04%	93.27%	98.09%	90.58%	94.43%	inhibition at 10 µM (HT29 (Colon cancer)): 12.2%; inhibition at 10 µM ([6]; Homo sapiens, read-out: cell growth inhibition): 30.5%; inhibition at 10 µM (SR (Leukaemia)): 5.57%; melting point: 165 °C
O=C(C=Cc1ccncc1F)c1ccc(N2CCNCC2)cc1 [Vf, 3-(3-Fluoropyridin-4-yl)-1-(4-(piperazin-1-yl)phenyl)prop-2-en-1-one]	86.18%	102.01%	99.19%	86.42%	85.84%	14.2%	100.32%	91.63%	99.71%	102.52%	96.26%	78.82%	106.22%	100.92%	101.95%	101.29%	101.11%	99.00%	89.08%	92.99%	inhibition at 10 µM (HT29 (Colon cancer)): 13.8%; inhibition at 10 µM (SR (Leukaemia)): 7.01%; melting point: 225 °C
Fc1cnccc1C1CC(c2ccc(N3CCNCC3)cc2)=NN1 (centres unmarked) [VIc, 1-(4-(5-(3-Fluoropyridin-4-yl)-4,5-dihydro-1H-pyrazol-3-yl)phenyl) piperazine]	80.62%	83.16%	89.15%	60.16%	77.92%	–	114.26%	74.15%	82.88%	83.85%	89.29%	81.93%	98.79%	107.32%	98.00%	104.39%	85.78%	89.56%	101.50%	90.38%	inhibition at 10 µM (HT29 (Colon cancer)): 39.8%; melting point: 135 °C
O=C(C=Cc1cccc(F)c1)c1ccc(N2CCNCC2)cc1 [Vd, 3-(3-Fluorophenyl)-1-(4-(piperazin-1-yl)phenyl)prop-2-en-1-one]	68.63%	80.17%	79.41%	30.44%	16.55%	83.5%	94.85%	68.62%	87.11%	77.30%	75.26%	71.57%	93.74%	85.41%	101.78%	94.49%	76.85%	68.16%	85.44%	55.72%	inhibition at 10 µM (HT29 (Colon cancer)): 69.6%; inhibition at 10 µM (SR (Leukaemia)): 44.3%; Comment (cell cycle arrest phase) (HCT-116 cells [7]): arrest HCT-116 cell cycle in the G2/M phase; also recorded: induced cell arrest at G2/M phase; %Pre-G1 (HCT-116 cells [7]): 16.54%; %G2/M (HCT-116 cells [7]): 50.44%; %S (HCT-116 cells [7]): 27.78%; %G0/G1 (HCT-116 cells [7]): 21.78%; total increase in apoptosis compared to the control (HCT-116 cells [8]): approximately 18.7 fold; Apoptosis Late (HCT-116 cells [8]; 10 µM, 24 h, control 0.25): 10.32%; Apoptosis Early (HCT-116 cells [8]; 10 µM, 24 h): 3.92%; Necrosis (HCT-116 cells [8]; 10 µM, 24 h): 2.3%; Apoptosis Total (HCT-116 cells [8]; 10 µM, 24 h): 16.54%
